Values after ≈ are worked out from the molar mass of the structure shown. Read-outs that look alike come from different tables or passages of the source. Residues, ends and D or L forms follow the SMILES beside them.
What was measured:
E. coli K-12 MG1655 = test: Resistance development assay (serial passage), E. coli; assay type: cell-based, Escherichia coli; details: serial passage at sub-MIC in CAMHB, 32 days
From the text: (§1) Bacteria (E. coli K-12 MG1655 and S. aureus ATCC 29213 and SO-SAU19-1) were serial passaged in CAMHB as described by [Silverman et al. (2001)] with some small modifications.

E. faecium = test: microbe, parasite or virus in culture; details: for MIC: Enterococcus faecium
Protocol: (§2) Briefly, bacterial colonies from blood agar plates were suspended and grown in Cation-Adjusted Mueller-Hinton Broth (CAMHB, […] Ca^2+, […] Mg^2+). The bacterial suspension was adjusted to 0.5 McFarland standard (∼1 × 10^8 colony-forming units (CFU)/ml) and serial diluted 1:200 in CAMHB (∼5 × 10^5 CFU/mL). […] The suspension was plated out on blood agar plates to confirm the CFU/ml. Both the microtiter plates and the blood agar plates were incubated at 37°C for 24 h.

E. coli [1] = test: microbe, parasite or virus in culture; details: for MIC: Escherichia coli; for MIC E. coli: K-12 MG1655, CLSI broth microdilution, CAMHB, 37°C, visible growth, net peptide concentration
Protocol: as §2

K. pneumoniae = test: microbe, parasite or virus in culture; details: for MIC: Klebsiella pneumoniae
Protocol: as §2

E. cloacae = test: microbe, parasite or virus in culture; details: Enterobacter cloacae, 24 h
Protocol: as §2

P. aeruginosa = test: microbe, parasite or virus in culture; details: for MIC: Pseudomonas aeruginosa
Protocol: as §2

[2] = tested on: S. aureus ATCC 29213 and SO-SAU19-1; assay type: cell-based, Staphylococcus aureus
From the text: as §1

S. aureus = test: microbe, parasite or virus in culture; details: Staphylococcus aureus
Protocol: as §2

A. baumannii = test: microbe, parasite or virus in culture; details: for MIC: Acinetobacter baumannii
Protocol: as §2

E. faecalis = test: microbe, parasite or virus in culture; details: for MIC: Enterococcus faecalis
Protocol: as §2

E. coli [3] = test: Rifampicin (RifR) mutagenesis assay after UV-C; assay type: cell-based, Escherichia coli; details: for Reduction of mutation frequency E. coli (20 μg/ml): 20 μg/ml peptide, UV-C 20 mJ/cm^2, RifR assay, relative to untreated control
Protocol: The rifampicin (Rif^R) mutagenesis assay was performed as described ([Nedal et al., 2020]). Briefly, an overnight culture of E. coli was diluted 1:1,000 and grown until an OD600 of 0.01. APIM-peptides (20 μg/ml) were added to LB media with glass beads (for uniform distribution of APIM-peptides) and incubated for 30 min at 37°C. The pellets were next collected, resuspended in 500 μl PBS, and exposed to UV-C (20 mJ/cm^2) in a six-well plate at 4°C. The unexposed bacteria (-UV) were otherwise handled exactly like the UV-exposed bacteria. Next, the cells were resuspended in LB media and incubated in a rotary shaker at 37°C at 250 rpm for 2 h before being harvested, diluted, and plated on LB with soft agar with and without rifampicin (100 μg/ml). Mutation frequency, Rif^R/10^8, is obtained as follows: (number of colonies on the rifampicin plate (Rif^R)/(number of colonies on LB plates without antibiotics), per milliliter of bacterial suspension. […]
mutagenesis in E. coli more efficiently than the other peptide variants.
Increase in mutation frequencies after treatment with UV-C (20 mJ/cm2) relative to spontaneous mutations frequencies using the RifR assay were determined. This increase is set to 100% for untreated control, and % reduction after addition of peptides 1-5 (20 μg/mL) are shown. Mean ± SD from three independent experiments. * p<0.05, ** p<0.005

E. coli [4] = test: Growth inhibition assay (OD600 over 24 h); assay type: cell-based, Escherichia coli; design: Reduction of viability E. coli (60 μg/ml): key to the marks not given beside the values; details: LB medium
Protocol: An overnight culture of Escherichia coli was diluted 1:100 in Luria-Bertani (LB) medium and allowed to grow until an optical density (OD) at 600 nm (OD600) of 0.06–0.1. APIM-peptides were prepared by serial dilution in Milli-Q H2O and kept at 4°C. Fresh LB medium (60 μl) was added to a flat-bottom microtiter plate. The bacterial suspension was diluted 1:100 in LB, and 75 μl of this suspension was added to the wells. Finally, 15 μl of APIM-peptide solution (to final concentrations 60, 120, and 240 μg/ml) or distilled water (positive control) was added to the wells, reaching a total volume of 150 μl per well. Data are presented only for the dose that separated the effect of the different peptides, i.e., 60 μg/ml. A blank sterile medium was used as negative control. The plates were incubated with shaking at 510 rpm at 37°C inside a plate reader (TECAN, Spark®), and OD was read every hour over a period of 24 h.
The MIC for E. coli in LB medium is higher than that in CAMHB; thus, concentrations higher than the MIC given in Table 2 are used in the growth inhibition and mutagenesis assays. […]
E. coli. Growth of E. coli in LB medium over 24 hours (Optical Density (OD) 600 nm) after addition
of APIM-peptide variants 1-5 (60 µg/mL) at time t=0 (see Table 2). Negative (-) control is no
bacteria added, positive (+) control is untreated bacteria.
highest inhibition of growth.
control (black filled line).

HEK293 cells = tested on: HEK293 cells
Protocol: HEK293 cells (6,000 cells/well) were seeded in 96-well microtiter plates. After 4 h, APIM-peptides (12–48 μg/ml) were added, and the cells were incubated without change of media for up to 4 days. Viability was measured using the 3-(4,5-dimethylthiazol-2-yl)-2,5-diphenyltetrazolium bromide (MTT) assay as described ([Gilljam et al., 2009]).
(1 picture or pasted object on this page, not shown here)

[5] = tested on: S. epidermidis MRSE (SO-SEP9-1); details: SO-SEP9-1, 24 h
Protocol: as §2

[6] = SO-PAE19-1 (multidrug resistant)

CC1(C)S[C@@H]2[C@H](NC(=O)[C@H](N)c3ccccc3)C(=O)N2[C@H]1C(=O)O [Ampicillin, ampicillin]
increase in MIC relative to day 1 (E. coli K-12 MG1655): ≤ 64 ×
Combination effect with 0.5× MIC betatide (E. faecium; CCUG 59167 (vanA+), reduced MIC of antibiotic when combined with 0.5× MIC betatide): None
MIC (E. faecium; 24 h): 2050 µg/mL (≈ 5860 µM)
MIC (E. faecium; CCUG59167, 24 h): 1 µg/mL (≈ 2.86 µM)
Combination effect with 0.5× MIC betatide (E. faecium; SO-EFU19-1 (vanB+)): None
MIC (E. coli [1]; MG1655, read-out: MIC in E. coli): 16 µg/mL (≈ 45.8 µM)

CO/N=C(\C(=O)N[C@@H]1C(=O)N2C(C(=O)O)=C(COC(C)=O)CS[C@H]12)c1csc(N)n1 [Cefotaxime, cefotaxime]
Combination effect with 0.5× MIC betatide (K. pneumoniae; ATCC 13883): Additive 2×
MIC (K. pneumoniae; 24 h): 2050 µg/mL (≈ 4500 µM)
MIC (K. pneumoniae; ATCC13883, 24 h): 0.13 µg/mL (≈ 0.285 µM)
Combination effect with 0.5× MIC betatide (K. pneumoniae; SO-KPN19-1 (ESBL-CARBA-D)): None
MIC (E. cloacae): > 1020 µg/mL

CC(C)(O/N=C(\C(=O)N[C@@H]1C(=O)N2C(C(=O)[O-])=C(C[n+]3ccccc3)CS[C@H]12)c1csc(N)n1)C(=O)O [Ceftazidime, ceftazidime]
Combination effect with 0.5× MIC betatide (P. aeruginosa; ATCC 27853): None
MIC (P. aeruginosa; 24 h): 128 µg/mL (≈ 234 µM)
MIC (P. aeruginosa; ATCC27853, 24 h): 2 µg/mL (≈ 3.66 µM)
Combination effect with 0.5× MIC betatide (P. aeruginosa; [6]): None
MIC (E. cloacae): > 1000 µg/mL

CNC(C)C1CCC(N)C(OC2C(N)CC(N)C(OC3OCC(C)(O)C(NC)C3O)C2O)O1 (centres unmarked) [Gentamicin, gentamicin]
increase in MIC relative to day 1 ([2]; S. aureus ATCC 29213, serial passage, first experiment (parallel 1)): ≤ 256 ×
increase in MIC relative to day 1 ([2]; S. aureus SO-SAU19-1 (MRSA), 20 passages): 8 ×
MIC (S. aureus; ATCC29213, read-out: MIC in S. aureus ATCC 29213, ATCC 29213, values given in method text): 1 µg/mL (≈ 2.09 µM)
MIC (S. aureus; ATCC29213, read-out: MIC in S. aureus, starting MIC of resistance development assay, CAMHB, strain not differentiated (ATCC 29213 and SO-SAU19-1)): 1 µg/mL
Combination effect with 0.5× MIC betatide (P. aeruginosa; ATCC 27853): None
MIC (P. aeruginosa; 24 h): 16 µg/mL (≈ 33.5 µM)
MIC (P. aeruginosa; ATCC27853, 24 h): 2 µg/mL (≈ 4.19 µM)
Combination effect with 0.5× MIC betatide (P. aeruginosa; [6]): None
MIC (E. coli [1]; 24 h): > 500 µg/mL
MIC (E. coli [1]; MG1655, 24 h): 0.5 µg/mL (≈ 1.05 µM)
Combination effect with 0.5× MIC betatide (E. coli [1]; MG1655): None
Combination effect with 0.5× MIC betatide (K. pneumoniae; ATCC 13883): Additive 4×
MIC (K. pneumoniae; 24 h): 64 µg/mL (≈ 134 µM)
MIC (K. pneumoniae; ATCC13883, 24 h): 0.5 µg/mL (≈ 1.05 µM)
Combination effect with 0.5× MIC betatide (K. pneumoniae; SO-KPN19-1 (ESBL-CARBA-D)): Additive 4×
MIC (E. cloacae): > 1000 µg/mL
Combination effect with 0.5× MIC betatide (A. baumannii; ATCC 19606): None
MIC (A. baumannii; 24 h): > 1000 µg/mL
MIC (A. baumannii; ATCC19606, 24 h): 8 µg/mL (≈ 16.8 µM)

CC(=O)NC[C@H]1CN(c2ccc(N3CCOCC3)c(F)c2)C(=O)O1 [Linezolid, linezolid]
Combination effect with 0.5× MIC betatide (E. faecalis; ATCC 29212): None
MIC (E. faecalis; 24 h): 8 µg/mL (≈ 23.7 µM)
MIC (E. faecalis; ATCC29212, 24 h): 2 µg/mL (≈ 5.93 µM)
Combination effect with 0.5× MIC betatide (E. faecalis; SO-EFA19-1 (optrA+)): None

CC[C@H](C)[C@H](NC(=O)[C@H](CCCCN)NC(=O)[C@H](CCCNC(=N)N)NC(=O)[C@H](CCCCN)NC(=O)[C@H](CCCCN)NC(=O)[C@H](CCCCN)NC(=O)[C@H](Cc1c[nH]c2ccccc12)NC(=O)[C@H](CCCCN)NC(=O)[C@@H](NC(=O)[C@H](CC(C)C)NC(=O)[C@H](Cc1c[nH]c2ccccc12)NC(=O)[C@H](CCCNC(=N)N)NC(=O)[C@H](CC(=O)O)NC(=O)[C@H](CCSC)NC(C)=O)C(C)C)C(=O)N[C@@H](CCCNC(=N)N)C(=O)N[C@@H](CCCNC(=N)N)C(=O)N[C@@H](CCCNC(=N)N)C(=O)N[C@@H](CCCNC(=N)N)C(=O)N[C@@H](CCCNC(=N)N)C(=O)N[C@@H](CCCNC(=N)N)C(=O)N[C@@H](CCCNC(=N)N)C(=O)N[C@@H](CCCNC(=N)N)C(=O)N[C@@H](CCCNC(=N)N)C(=O)N[C@@H](CCCNC(=N)N)C(=O)N[C@@H](CCCNC(=N)N)C(N)=O [Peptide 1] (Ac-MDRWLVKWKKKRKIRRRRRRRRRRR-NH2)
Reduction of mutation frequency E. coli (20 μg/ml) (E. coli [3]): +
inhibition of growth of E. coli (OD 600 nm) (E. coli [4]; 60 µg/mL, over 24 hours, Supplementary Figure S1): least efficient
Reduction of viability HEK293 (24 μg/ml) (HEK293 cells): +
MIC S. epidermidis MRSE [5]: 32 µg/mL (≈ 8.71 µM)
MIC E. coli (E. coli [1]; 24 h): 32 µg/mL (≈ 8.71 µM)

CC[C@H](C)[C@H](NC(=O)CNC(=O)[C@H](CCCCN)NC(=O)[C@@H](NC(=O)[C@H](CC(C)C)NC(=O)[C@H](Cc1c[nH]c2ccccc12)NC(=O)[C@H](CCCNC(=N)N)NC(=O)[C@H](CC(=O)O)NC(=O)[C@H](CCSC)NC(C)=O)C(C)C)C(=O)N[C@@H](CC(C)C)C(=O)N[C@@H](CCC(N)=O)C(=O)N[C@@H](Cc1c[nH]c2ccccc12)C(=O)N[C@@H](CCCNC(=N)N)C(=O)N[C@@H](CCCCN)C(=O)N[C@H](C(=O)N[C@@H](CCCNC(=N)N)C(=O)N[C@@H](CCCNC(=N)N)C(=O)N[C@@H](CCCNC(=N)N)C(=O)N[C@@H](CCCNC(=N)N)C(=O)N[C@@H](CCCNC(=N)N)C(=O)N[C@@H](CCCNC(=N)N)C(=O)N[C@@H](CCCNC(=N)N)C(=O)N[C@@H](CCCNC(=N)N)C(N)=O)[C@@H](C)CC [Peptide 5] (Ac-MDRWLVKGILQWRKIRRRRRRRR-NH2)
UV-induced mutation frequencies relative to control (E. coli [3]; 20 μg/mL, UV-C 20 mJ/cm2, RifR assay, three independent experiments): significantly reduced
Reduction of mutation frequency E. coli (20 μg/ml) (E. coli [3]): ++
Reduction of viability E. coli (60 μg/ml) (E. coli [4]; 60 μg/ml peptide, OD600 every hour over 24 h, relative to untreated control): ++
Reduction of viability HEK293 (24 μg/ml) (HEK293 cells): +
MIC S. epidermidis MRSE [5]: 16 µg/mL (≈ 4.95 µM)
MIC E. coli (E. coli [1]; 24 h): 16 µg/mL (≈ 4.95 µM)
